# Measurements published in patent US20250275540A1, “USE OF PROTOPORPHYRINOGEN OXIDASE” (BEIJING DABEINONG BIOTECHNOLOGY CO., LTD., priority 2022, published 2025).
# Test system: transgenic maize plants
# Experiment: Detection of the herbicide tolerance of the transgenic maize plants
# Assay type: in vivo
# Details: for The grade of pesticide damage/plant: 0 / The grade of pesticide damage/plant: 1 / The grade of pesticide damage/plant: 2 / The grade of pesticide damage/plant: 3: 7 DAT
# From the text: The transformed Arabidopsis thaliana T1 plants were initially selected using glufosinate herbicide. The Arabidopsis thaliana T1 plants (PPOA-01) into which the PPOA-01 nucleotide sequence was introduced, the Arabidopsis thaliana T1 plants (PPOB-01) into which the PPOB-01 nucleotide sequence was introduced, the Arabidopsis thaliana T1 plants (PPOC-01) into which the PPOC-01 nucleotide sequence was introduced, the Arabidopsis thaliana T1 plants (PPOD-01) into which the PPOD-01 nucleotide sequence was introduced, the Arabidopsis thaliana T1 plants (PPOE-01) into which the PPOE-01 nucleotide sequence was introduced, the Arabidopsis thaliana T1 plants (PPOF-01) into which the PPOF-01 nucleotide sequence was introduced, the Arabidopsis thaliana T1 plants (PPO-AP-01) into which the PPO-AP-01 nucleotide sequence was introduced, and the Arabidopsis thaliana T1 plants (control vector) into which the control vector was introduced, the wild-type Arabidopsis thaliana plants (CK) (with 24 plants being included in each genotype) (18 days after sowing) were sprayed with saflufenacil at three concentrations (25 g ai/ha (one-fold field concentration, 1×), 100 g ai/ha (four-fold field concentration, 4×), and 0 g ai/ha (water, 0×)), oxyfluorfen at three concentrations (180 g ai/ha (one-fold field concentration, 1×), 720 g ai/ha (four-fold field concentration, 4×), and 0 g ai/ha (water, 0×)), and flumioxazin at three concentrations (60 g ai/ha (one-fold field concentration, 1×), 240 g ai/ha (four-fold field concentration, 4×), and 0 g ai/ha (water, 0×) to determine the tolerance of Arabidopsis thaliana to the herbicides. After 7 days of spraying (7 DAT), the damage level of each plant caused by the herbicide was evaluated according to the average of the damage levels (%) of plants (the average of the damage levels (%) of plants=the injured leaf area/the total leaf area×100%), i.e., the grade of pesticide damage: grade 0 means that the growth status of plants is essentially consistent with those sprayed with the blank solvent (water); grade 1 means that the average of the damage levels of plants is less than 10%; grade 2 means that the average of the damage levels of plants is greater than 10%; and grade 3 means that the average of the damage levels of plants is 100%. The plants having a growth status falling within grades 0 and 1 are classified as highly resistant plants; those having a growth status falling within grade 2 are classified as poorly resistant plants; and those having a growth status falling within grade 3 are classified as non-resistant plants.
# The maize plants into which the PPOA-02 nucleotide sequence was introduced, the maize plants into which the PPOB-02 nucleotide sequence was introduced, the maize plants into which the PPOC-02 nucleotide sequence was introduced, the maize plants into which the PPOD-02 nucleotide sequence was introduced, the maize plants into which the PPOE-02 nucleotide sequence was introduced, the maize plants into which the PPOF-02 nucleotide sequence was introduced, the maize plants into which the PPO-AP-02 nucleotide sequence was introduced, the maize plants (control vector) into which the control vector was introduced, and the wild-type maize plants (CK) (with 16 plants being included in each genotype) (18 days after sowing) were taken and sprayed with saflufenacil at three concentrations (50 g ai/ha (two-fold field concentration, 2×), 100 g ai/ha (four-fold field concentration, 4×), and 0 g ai/ha (water, 0×)), oxyfluorfen at three concentrations (360 g ai/ha (two-fold field concentration, 2×), 720 g ai/ha (four-fold field concentration, 4×), and 0 g ai/ha (water, 0×), and flumioxazin at three concentrations (120 g ai/ha (two-fold field concentration, 2×), 240 g ai/ha (four-fold field concentration, 4×), and 0 g ai/ha (water, 0×) to determine the tolerance of maize plants to the herbicides. […]
# [1] = genotype Control vector, 120 g ai/ha
# [2] = genotype Control vector, 240 g ai/ha
# [3] = genotype PPO-AP-02, 120 g ai/ha
# [4] = genotype PPO-AP-02, 240 g ai/ha
structure (smiles),measurement,setting,value
"C#CCN1C(=O)COc2cc(F)c(N3C(=O)C4=C(CCCC4)C3=O)cc21 [flumioxazin, 2-[7-fluoro-3,4-dihydro-3-oxo-4-(2-propynyl)-2H-1,4-benzoxazin-6-yl]-4,5,6,7-tetrahydro-1H-isoindole-1,3(2H)-dione]",The grade of pesticide damage/plant: 0,"genotype CK, 120 g ai/ha",0 plant
same,The grade of pesticide damage/plant: 1,"genotype CK, 120 g ai/ha",0 plant
same,The grade of pesticide damage/plant: 2,"genotype CK, 120 g ai/ha",0 plant
same,The grade of pesticide damage/plant: 3,"genotype CK, 120 g ai/ha",16 plant
same,The grade of pesticide damage/plant: 0,"genotype CK, 240 g ai/ha",0 plant
same,The grade of pesticide damage/plant: 1,"genotype CK, 240 g ai/ha",0 plant
same,The grade of pesticide damage/plant: 2,"genotype CK, 240 g ai/ha",0 plant
same,The grade of pesticide damage/plant: 3,"genotype CK, 240 g ai/ha",16 plant
same,The grade of pesticide damage/plant: 0,[1],0 plant
same,The grade of pesticide damage/plant: 1,[1],0 plant
same,The grade of pesticide damage/plant: 2,[1],0 plant
same,The grade of pesticide damage/plant: 3,[1],16 plant
same,The grade of pesticide damage/plant: 0,[2],0 plant
same,The grade of pesticide damage/plant: 1,[2],0 plant
same,The grade of pesticide damage/plant: 2,[2],0 plant
same,The grade of pesticide damage/plant: 3,[2],16 plant
same,The grade of pesticide damage/plant: 0,[3],0 plant
same,The grade of pesticide damage/plant: 1,[3],0 plant
same,The grade of pesticide damage/plant: 2,[3],3 plant
same,The grade of pesticide damage/plant: 3,[3],13 plant
same,The grade of pesticide damage/plant: 0,[4],0 plant
same,The grade of pesticide damage/plant: 1,[4],0 plant
same,The grade of pesticide damage/plant: 2,[4],0 plant
same,The grade of pesticide damage/plant: 3,[4],16 plant
same,tolerance to the herbicide (in words),"genotype PPO-AP-02, at different concentrations",basically no tolerance
same,The grade of pesticide damage/plant: 0,"genotype PPOA-02, 120 g ai/ha",16 plant
same,The grade of pesticide damage/plant: 1,"genotype PPOA-02, 120 g ai/ha",0 plant
same,The grade of pesticide damage/plant: 2,"genotype PPOA-02, 120 g ai/ha",0 plant
same,The grade of pesticide damage/plant: 3,"genotype PPOA-02, 120 g ai/ha",0 plant
same,The grade of pesticide damage/plant: 0,"genotype PPOA-02, 240 g ai/ha",16 plant
same,The grade of pesticide damage/plant: 1,"genotype PPOA-02, 240 g ai/ha",0 plant
same,The grade of pesticide damage/plant: 2,"genotype PPOA-02, 240 g ai/ha",0 plant
same,The grade of pesticide damage/plant: 3,"genotype PPOA-02, 240 g ai/ha",0 plant
same,The grade of pesticide damage/plant: 0,"genotype PPOB-02, 120 g ai/ha",16 plant
same,The grade of pesticide damage/plant: 1,"genotype PPOB-02, 120 g ai/ha",0 plant
same,The grade of pesticide damage/plant: 2,"genotype PPOB-02, 120 g ai/ha",0 plant
same,The grade of pesticide damage/plant: 3,"genotype PPOB-02, 120 g ai/ha",0 plant
same,The grade of pesticide damage/plant: 0,"genotype PPOB-02, 240 g ai/ha",16 plant
same,The grade of pesticide damage/plant: 1,"genotype PPOB-02, 240 g ai/ha",0 plant
same,The grade of pesticide damage/plant: 2,"genotype PPOB-02, 240 g ai/ha",0 plant
same,The grade of pesticide damage/plant: 3,"genotype PPOB-02, 240 g ai/ha",0 plant
same,The grade of pesticide damage/plant: 0,"genotype PPOC-02, 120 g ai/ha",16 plant
same,The grade of pesticide damage/plant: 1,"genotype PPOC-02, 120 g ai/ha",0 plant
same,The grade of pesticide damage/plant: 2,"genotype PPOC-02, 120 g ai/ha",0 plant
same,The grade of pesticide damage/plant: 3,"genotype PPOC-02, 120 g ai/ha",0 plant
same,The grade of pesticide damage/plant: 0,"genotype PPOC-02, 240 g ai/ha",16 plant
same,The grade of pesticide damage/plant: 1,"genotype PPOC-02, 240 g ai/ha",0 plant
same,The grade of pesticide damage/plant: 2,"genotype PPOC-02, 240 g ai/ha",0 plant
same,The grade of pesticide damage/plant: 3,"genotype PPOC-02, 240 g ai/ha",0 plant
same,The grade of pesticide damage/plant: 0,"genotype PPOD-02, 120 g ai/ha",16 plant
same,The grade of pesticide damage/plant: 1,"genotype PPOD-02, 120 g ai/ha",0 plant
same,The grade of pesticide damage/plant: 2,"genotype PPOD-02, 120 g ai/ha",0 plant
same,The grade of pesticide damage/plant: 3,"genotype PPOD-02, 120 g ai/ha",0 plant
same,The grade of pesticide damage/plant: 0,"genotype PPOD-02, 240 g ai/ha",16 plant
same,The grade of pesticide damage/plant: 1,"genotype PPOD-02, 240 g ai/ha",0 plant
same,The grade of pesticide damage/plant: 2,"genotype PPOD-02, 240 g ai/ha",0 plant
same,The grade of pesticide damage/plant: 3,"genotype PPOD-02, 240 g ai/ha",0 plant
same,The grade of pesticide damage/plant: 0,"genotype PPOE-02, 120 g ai/ha",16 plant
same,The grade of pesticide damage/plant: 1,"genotype PPOE-02, 120 g ai/ha",0 plant
same,The grade of pesticide damage/plant: 2,"genotype PPOE-02, 120 g ai/ha",0 plant
same,The grade of pesticide damage/plant: 3,"genotype PPOE-02, 120 g ai/ha",0 plant
same,The grade of pesticide damage/plant: 0,"genotype PPOE-02, 240 g ai/ha",16 plant
same,The grade of pesticide damage/plant: 1,"genotype PPOE-02, 240 g ai/ha",0 plant
same,The grade of pesticide damage/plant: 2,"genotype PPOE-02, 240 g ai/ha",0 plant
same,The grade of pesticide damage/plant: 3,"genotype PPOE-02, 240 g ai/ha",0 plant
same,The grade of pesticide damage/plant: 0,"genotype PPOF-02, 120 g ai/ha",16 plant
same,The grade of pesticide damage/plant: 1,"genotype PPOF-02, 120 g ai/ha",0 plant
same,The grade of pesticide damage/plant: 2,"genotype PPOF-02, 120 g ai/ha",0 plant
same,The grade of pesticide damage/plant: 3,"genotype PPOF-02, 120 g ai/ha",0 plant
same,The grade of pesticide damage/plant: 0,"genotype PPOF-02, 240 g ai/ha",16 plant
same,The grade of pesticide damage/plant: 1,"genotype PPOF-02, 240 g ai/ha",0 plant
same,The grade of pesticide damage/plant: 2,"genotype PPOF-02, 240 g ai/ha",0 plant
same,The grade of pesticide damage/plant: 3,"genotype PPOF-02, 240 g ai/ha",0 plant
same,tolerance to the herbicide (in words),"genotypes PPOA-02 to PPOF-02, at different concentrations",high-resistant tolerance
